In series [1] the target is T1, PRDX1 (Homo sapiens, UniProt Q06830).
T1 sequence (Q06830 1-199): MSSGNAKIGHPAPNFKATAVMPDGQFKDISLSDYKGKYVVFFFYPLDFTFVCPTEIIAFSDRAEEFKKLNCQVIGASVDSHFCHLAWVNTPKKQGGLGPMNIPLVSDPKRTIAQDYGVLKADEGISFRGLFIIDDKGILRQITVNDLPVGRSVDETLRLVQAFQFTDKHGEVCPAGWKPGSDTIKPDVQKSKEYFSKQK
The experiment in a line: Trx-TrxR-NADPH coupling peroxiredoxin activity assay, PRDX1. The format is biochemical.

Series [2] addresses T2, PRDX3 (Homo sapiens, UniProt P30048).
T2 sequence (P30048 62-256): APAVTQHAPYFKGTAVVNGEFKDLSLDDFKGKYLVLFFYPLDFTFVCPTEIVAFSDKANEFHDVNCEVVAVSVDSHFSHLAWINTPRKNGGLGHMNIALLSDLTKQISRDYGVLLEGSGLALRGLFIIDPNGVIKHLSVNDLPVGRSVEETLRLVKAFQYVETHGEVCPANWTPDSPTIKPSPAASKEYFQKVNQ
The experiment in a line: Trx-TrxR-NADPH coupling peroxiredoxin activity assay, PRDX3. It is filed as biochemical.

The target in series [3] is T3, recombinant wild type PRDX1 (Homo sapiens, UniProt Q06830).
T3 sequence (Q06830 1-199): T1 sequence (Q06830 1-199)
As to the kind of experiment: Surface plasmon resonance (SPR) assay. It is filed as binding. A general note: SPR reads the build-up and loss of mass on a sensor chip optically.

The target of series [4] is T1, PRDX1. The experiment in a line: Determination of Kinact and Ki for inhibition of PRDX1's peroxidase activity. It is filed as biochemical.
Series [5] deals with HCT116 cells. As to the kind of experiment: CCK-8 proliferation assay, HCT116. The format is cell-based. The following applies: Homo sapiens, HCT-116; 24 h treatment. As for the experimental part:
SW620 or HCT116 cells were seeded into 96-well plate overnight at 5000 cells per well or 4000 cells per well respectively. […] Cell numbers were assessed using the CCK-8 reagent at OD 450. The IC50 values were calculated by fitting the data points with the dose-response function in GraphPad.

For series [6], the system named is SW620 cells. The experiment in a line: Cell viability by trypan blue staining, SW620. As to conditions: for viability at 0.5 µM: Homo sapiens, SW-620, 24 h, read-out: cells viability, SW620. As to the method: Total cell number and viability were counted with trypan blue staining. To measure apoptosis, cells were harvested and followed by flow cytometric analysis using the Annexin V-FITC / PI apoptosis detection kit according to the manufacturer’s protocol. Cell apoptosis was analyzed by FlowJo software.
e, f Cell viability were measured by trypan-blue staining.

In series [7] the test system is nude mice. As to the kind of experiment: Acute toxicity test (percent survival within 2 weeks). It is filed as in vivo. As to conditions: for Survival number, female (n=4) / Survival number, male (n=4) / Survival rate, female (n=4) / Survival rate, male (n=4): within 2 weeks. As to the method: For acute toxicity test, Nude mice were randomly divided into five groups (four female mice and four male mice in each group). […] The percent survival within 2 weeks was recorded in Supplementary Table 2 and survival curve.

Series [8] deals with nude mice. The experiment in a line: Chronic toxicity test, routine blood test. The following applies: 2 mg/kg, 5 days per week for two weeks.

The values below come from PMC9895061 (Signal Transduction and Targeted Therapy, 2023).

A word on the IC50: it is the concentration needed to halve the response being measured. One may read the Kd as the free concentration of one partner at which half of the binding sites on the other are occupied at equilibrium, for simple one-to-one binding. Broadly, the Ki is a measure of affinity in units of concentration, obtained from inhibition or displacement. Low readings indicate a stronger hold on the target, high ones a looser hold on the target. As a reminder, the viability is a read-out of living cells in per cent, often relative to untreated cells.

Read-outs that look alike come from different tables or passages of the source.

The molecule `CC1=C(O)C(=O)C=C2C1=CC=C1[C@@]2(C)CC[C@@]2(C)[C@@H]3C[C@](C)(C(=O)O)CC[C@]3(C)CC[C@]12C` [Celastrol, reference compound] displayed an IC50 in series [1] of 290 ± 10 nM. Moreover, in series [2], the 50% inhibitory concentration (IC50) stood at 6670 ± 520 nM. In addition, the Kd in series [3] came to 360 nM. Moreover, the Ki in series [4] was 950 ± 86 nM. In addition, it took 894 nM to reach half-maximal inhibition in series [5] (IC50). Also, the viability at 0.5 µM in series [6] was roughly 80%. Besides, in series [7] (10 mg/kg intraperitoneally), the “Survival number, female (n=4)” value is 0; the “Survival number, male (n=4)” value came to 1; the “Survival rate, female (n=4)” value came to 0%; the “Survival rate, male (n=4)” value is 25%. In addition, in series [7] (20 mg/kg intraperitoneally), the “Survival number, female (n=4)” value is given as 0; the “Survival number, male (n=4)” value was determined as 0; the “Survival rate, female (n=4)” value is 0%; the “Survival rate, male (n=4)” value is reported as 0%. In series [7] (20 mg/kg, within two weeks), the “survival, all mice (male and female), in words” value is given as “All the mice died”. For the same molecule, the “count and proportion of monocyte and neutrophil, routine blood test (in words)” value in series [8] was “higher than the reference intervals”.
As for `COC(=O)[C@H](C)NC(=O)N[C@]1(C)CC[C@]2(C)CC[C@]3(C)C4=CC=C5C(=CC(=O)C(O)=C5C)[C@]4(C)CC[C@@]3(C)[C@@H]2C1` [19-048, Methyl (((2R,4aS,6aS,12bR,14aS,14bR)-10-hydroxy-2,4a,6a,9,12b,14a-hexamethyl-11-oxo-1,2,3,4,4a,5,6,6a,11,12b,13,14,14a,14b-tetradecahydropicen-2-yl)carbamoyl)-L-alaninate], the “inhibition of the peroxidase activity of PRDX3 (in words)” value in series [2] (recombinant PRDX3) is “no obvious inhibition”. Further, the 50% inhibitory concentration (IC50) in series [2] (recombinant PRDX3, 1.5 h incubation, mean ± SEM, triplicate, read-out: IC50 against the peroxidase activity of PRDX3) is greater than 100000 nM. In series [5], this molecule came in with a concentration for half-maximal inhibition (IC50) of 816 nM. Moreover, in series [6] (1, 2 μM, 24 h, trypan blue), the “cell viability at high concentrations, SW620 (in words)” value is “significantly decreased cell viability”. Moreover, the viability at 0.5 µM in series [6] was roughly 80%. Besides, in series [7] (10 mg/kg intraperitoneally), the “Survival number, female (n=4)” value was found to be 4; the “Survival number, male (n=4)” value turned out to be 4; the “Survival rate, female (n=4)” value is listed as 100%; the “Survival rate, male (n=4)” value was found to be 100%. The “survival, all mice (male and female)” value in series [7] (10 mg/kg, within two weeks) was 100%. Besides, in series [7] (20 mg/kg intraperitoneally), the “Survival number, female (n=4)” value is listed as 0; the “Survival number, male (n=4)” value is reported as 4; the “Survival rate, female (n=4)” value turned out to be 0%; the “Survival rate, male (n=4)” value came to 100%.
